From publication PMC10675340, “Preparation, Radiolabeling with ^68Ga/^177Lu and Preclinical Evaluation of Novel Angiotensin Peptide Analog: A New Class of Peptides for Breast Cancer Targeting” (Pharmaceuticals, 2023)
Read-outs that look alike come from different tables or passages of the source. Where a SMILES comes first, the peptide text is derived from it. [ ]: non-standard residue; d: D form. The star is where a group is joined. DOTA = O=C(O)CN1CCN(CC(=O)O)CCN(CC(=O)*)CCN(CC(=O)O)CC1; βAla = NCCC(=O)O

Assays:
[1] = In vivo receptor-blocking study in nude mice bearing MDA-MB-231 xenografts; settings: mouse, total radioactivity, nude mice with MDA-MB-231 xenografts, 2 h p.i., co-injected ~100 µg unlabeled AngII peptide analog, mean ± SD
Description: (§1) To validate the selectivity of the AngII peptide analog for its intended target AT1 receptors, we performed a receptor-blocking assay by administering a blocking dose of ~100 μg of unlabeled AngII peptide premixed with the radiolabeled AngII peptide analog at 2 h p.i. […] Furthermore, a varying influence pattern of the pharmacological receptor blocking dose was detected mainly in the intestines, heart, and kidneys as the uptake in these organs was reduced to variable degrees depending on the degree of AT1 receptor expression by these organs and tissues (Table 2).
(§2) For the receptor-blocking study, an additional group of mice was injected with the radiolabeled AngII peptide premixed with unlabeled AngII peptide (~100 μg) to serve as a receptor-blocking agent. In vivo, biodistribution and blocking studies were performed at 2 h p.i. as stated before.

AT1 receptor = experiment: as above; settings: mouse, total radioactivity, 2 h p.i., co-injected ~100 µg unlabeled AngII peptide analog, mean ± SD
Description: as §1, §2

[2] = In vivo tumor targeting and biodistribution in nude mice bearing MDA-MB-231 xenografts; design: species or system mouse; settings: mouse, total radioactivity
Description: (§3) (with 43% wash away from the tumors over 2 h). The amount of radioactivity found for the ^68Ga-labeled AngII peptide analog in the tumors was always more than the radioactivity detected in the blood and muscle. A general pattern of better tumor-to-blood and tumor-to-muscle uptake ratios was noticed over time for ^68Ga-labeled AngII peptide.
(§4) In vivo, tumor uptake was conducted as reported previously. In summary, ~5 million MDA-MB-231 cells in 200 µL sterile PBS were implanted subcutaneously into each nude mouse. Once tumor growth became sufficient (~50–500 mg), tumor uptake and organ biodistribution were carried out after injecting the radiolabeled AngII peptide. The percent of the injected dose per gram in the tumors was determined by using a custom-designed Quattro Pro X9 spreadsheet (Corel Corporation, Austin, TX, USA).

[3] = system: MDA-MB-231 tumor xenografts; experiment: as above; design: species or system mouse
Description: as §3, §4

athymic nude mice = experiment: In vivo metabolic stability (radio-HPLC of mouse urine); settings: urine collected at 2 h p.i.
Description: Athymic nude mice were utilized for the metabolism study to determine the potential radio-metabolites in the urine. An aliquot of urine sample was collected by manual void at the time of sacrifice and analyzed by radio-HPLC. […] The results signified that most of the radioactivity (>80%) was still bound to the ^68Ga-AngII peptide analog (Figure 2). There were no major metabolites detected in the urine sample at 2 h p.i. A small hydrophilic metabolite peak was found at about 4 min for the urine sample. This finding confirms that the ^68Ga-AngII peptide analog is not prone to fast in vivo disintegration and is also in agreement with the results of high in vitro complex strength.
To determine the radio-metabolites of the ^68Ga-labeled AngII peptide analog, an aliquot of urine sample was collected by manual void at the time of sacrifice and mixed with an equal volume of CH3CN. The mixture was centrifuged at 7000 rpm for 5 min. The resulting supernatant was collected and passed through a 0.20 μm Millex-LG filter unit to remove any precipitate or foreign particles and then analyzed by radio-HPLC.

tissue uptake at 2 h ([1]; blood, intravenous, read-out: Blood uptake, blocked): 0.85 ± 0.2 %ID/g | tissue uptake at 2 h ([1]; liver, read-out: Liver uptake, blocked): 0.85 ± 0.24 %ID/g | tissue uptake at 2 h ([1]; lungs, intravenous, read-out: Lungs uptake, blocked): 0.89 ± 0.35 %ID/g | tissue uptake at 2 h ([1]; pancreas, read-out: Pancreas uptake, blocked): 0.54 ± 0.12 %ID/g | tissue uptake at 2 h ([1]; spleen, intravenous, read-out: Spleen uptake, blocked): 0.35 ± 0.09 %ID/g | tissue uptake at 2 h ([1]; stomach, read-out: Stomach uptake, blocked): 0.49 ± 0.18 %ID/g | tissue uptake at 2 h (AT1 receptor; heart, intravenous, nude mice with MDA-MB-231 xenografts, read-out: Heart uptake, blocked): 0.23 ± 0.1 %ID/g | tissue uptake at 2 h (AT1 receptor; intestines without contents, nude mice with MDA-MB-231 xenografts, read-out: Intestines uptake (portion without contents), blocked): 0.8 ± 0.2 %ID/g | tissue uptake at 2 h (AT1 receptor; kidneys, intravenous, nude mice with MDA-MB-231 xenografts, read-out: Kidneys uptake, blocked): 2.01 ± 0.87 %ID/g | tissue uptake at 2 h (AT1 receptor; muscle/bone, nude mice with MDA-MB-231 xenografts, read-out: Muscle/bone uptake, blocked): 0.24 ± 0.1 %ID/g | tissue uptake at 2 h (AT1 receptor; tumor (MDA-MB-231 xenograft), MDA-MB-231 tumor in nude mice, read-out: Tumor uptake, blocked): 0.6 ± 0.27 %ID/g | dose excreted at 2 h (AT1 receptor; urine with bladder contents, intravenous, nude mice with MDA-MB-231 xenografts, read-out: Urine + Bladder (urinary excretion), blocked): 43.5 ± 7.9% | tissue uptake at 0.75 h ([2]; blood, nude mice with MDA-MB-231 xenografts, 45 min p.i., mean ± SD, n = 4-6, read-out: Blood uptake): 0.55 ± 0.12 %ID/g | tissue uptake at 2 h ([2]; blood, nude mice with MDA-MB-231 xenografts, 2 h p.i., mean ± SD, n = 4-6, read-out: Blood uptake): 0.22 ± 0.1 %ID/g | tissue uptake at 0.75 h ([2]; heart, nude mice with MDA-MB-231 xenografts, 45 min p.i., mean ± SD, n = 4-6, read-out: Heart uptake): 0.88 ± 0.3 %ID/g | tissue uptake at 2 h ([2]; heart, nude mice with MDA-MB-231 xenografts, 2 h p.i., mean ± SD, n = 4-6, read-out: Heart uptake): 0.65 ± 0.19 %ID/g | tissue uptake at 0.75 h ([2]; intestines without contents, nude mice with MDA-MB-231 xenografts, 45 min p.i., mean ± SD, n = 4-6, read-out: Intestines uptake (portion without contents)): 1.2 ± 0.35 %ID/g | tissue uptake at 2 h ([2]; intestines without contents, nude mice with MDA-MB-231 xenografts, 2 h p.i., mean ± SD, n = 4-6, read-out: Intestines uptake (portion without contents)): 1.05 ± 0.31 %ID/g | tissue uptake at 0.75 h ([2]; kidneys, nude mice with MDA-MB-231 xenografts, 45 min p.i., mean ± SD, n = 4-6, read-out: Kidneys uptake): 4.89 ± 1.97 %ID/g | tissue uptake at 2 h ([2]; kidneys, nude mice with MDA-MB-231 xenografts, 2 h p.i., mean ± SD, n = 4-6, read-out: Kidneys uptake): 3.97 ± 1.2 %ID/g | tissue uptake at 0.75 h ([2]; liver, nude mice with MDA-MB-231 xenografts, 45 min p.i., mean ± SD, n = 4-6, read-out: Liver uptake): 0.77 ± 0.22 %ID/g | tissue uptake at 2 h ([2]; liver, nude mice with MDA-MB-231 xenografts, 2 h p.i., mean ± SD, n = 4-6, read-out: Liver uptake): 0.65 ± 0.28 %ID/g | tissue uptake at 0.75 h ([2]; lungs, nude mice with MDA-MB-231 xenografts, 45 min p.i., mean ± SD, n = 4-6, read-out: Lungs uptake): 0.57 ± 0.16 %ID/g | tissue uptake at 2 h ([2]; lungs, nude mice with MDA-MB-231 xenografts, 2 h p.i., mean ± SD, n = 4-6, read-out: Lungs uptake): 0.39 ± 0.15 %ID/g | tissue uptake at 0.75 h ([2]; muscle/bone, nude mice with MDA-MB-231 xenografts, 45 min p.i., mean ± SD, n = 4-6, read-out: Muscle/bone uptake): 0.4 ± 0.17 %ID/g | tissue uptake at 2 h ([2]; muscle/bone, nude mice with MDA-MB-231 xenografts, 2 h p.i., mean ± SD, n = 4-6, read-out: Muscle/bone uptake): 0.19 ± 0.1 %ID/g | tissue uptake at 0.75 h ([2]; pancreas, nude mice with MDA-MB-231 xenografts, 45 min p.i., mean ± SD, n = 4-6, read-out: Pancreas uptake): 0.47 ± 0.11 %ID/g | tissue uptake at 2 h ([2]; pancreas, nude mice with MDA-MB-231 xenografts, 2 h p.i., mean ± SD, n = 4-6, read-out: Pancreas uptake): 0.29 ± 0.05 %ID/g | tissue uptake at 0.75 h ([2]; spleen, nude mice with MDA-MB-231 xenografts, 45 min p.i., mean ± SD, n = 4-6, read-out: Spleen uptake): 0.39 ± 0.08 %ID/g | tissue uptake at 2 h ([2]; spleen, nude mice with MDA-MB-231 xenografts, 2 h p.i., mean ± SD, n = 4-6, read-out: Spleen uptake): 0.24 ± 0.05 %ID/g | tissue uptake at 0.75 h ([2]; stomach, nude mice with MDA-MB-231 xenografts, 45 min p.i., mean ± SD, n = 4-6, read-out: Stomach uptake): 0.34 ± 0.1 %ID/g | tissue uptake at 2 h ([2]; stomach, nude mice with MDA-MB-231 xenografts, 2 h p.i., mean ± SD, n = 4-6, read-out: Stomach uptake): 0.3 ± 0.08 %ID/g | tissue uptake at 0.75 h ([2]; tumor (MDA-MB-231 xenograft), MDA-MB-231 tumor in nude mice, 45 min p.i., mean ± SD, n = 4-6, read-out: Tumor uptake): 2.18 ± 0.66 %ID/g | tissue uptake at 2 h ([2]; tumor (MDA-MB-231 xenograft), MDA-MB-231 tumor in nude mice, 2 h p.i., unblocked, mean ± SD, n = 4-6, read-out: Tumor uptake): 1.25 ± 0.37 %ID/g | tissue to tissue ratio at 2 h ([2]; tumor / muscle, nude mice with MDA-MB-231 xenografts, 2 h p.i., read-out: Tumor/muscle uptake ratio): 6.58 | tissue to tissue ratio at 0.75 h ([2]; tumor/blood, nude mice with MDA-MB-231 xenografts, 45 min p.i., read-out: Tumor/blood uptake ratio): 3.96 | tissue to tissue ratio at 2 h ([2]; tumor/blood, nude mice with MDA-MB-231 xenografts, 2 h p.i., read-out: Tumor/blood uptake ratio): 5.68 | tissue to tissue ratio at 0.75 h ([2]; tumor/muscle, nude mice with MDA-MB-231 xenografts, 45 min p.i., read-out: Tumor/muscle uptake ratio): 5.45 | dose excreted at 0.75 h ([2]; urine with bladder contents, nude mice with MDA-MB-231 xenografts, 45 min p.i., mean ± SD, n = 4-6, read-out: Urine + Bladder (urinary excretion)): 49.9 ± 10.9% | dose excreted at 2 h ([2]; urine with bladder contents, nude mice with MDA-MB-231 xenografts, 2 h p.i., mean ± SD, n = 4-6, read-out: Urine + Bladder (urinary excretion)): 55 ± 8.79% | Wash away from the tumors ([3]; MDA-MB-231 tumors in nude mice, over 2 h (45 min vs 2 h p.i.)): 43% | Clearance through the hepatobiliary system (liver + intestines) ([3]; tumor-bearing nude mice): below 7 % ID | Radioactivity still bound to the radiopeptide in urine (athymic nude mice): > 80%
Structure (SMILES): CC[C@H](C)[C@H](NC(=O)[C@H](Cc1ccc(O)cc1)NC(=O)[C@@H](NC(=O)[C@H](CCCNC(=N)N)NC(=O)[C@H](CC(=O)O)NC(=O)CCNC(=O)[C@H](CCCCN)NC(=O)CN1CCN(CC(=O)O)CCN(CC(=O)O)CCN(CC(=O)O)CC1)C(C)C)C(=O)N[C@@H](Cc1c[nH]cn1)C(=O)N1CCC[C@H]1C(=O)N[C@@H](Cc1ccccc1)C(=O)N[C@@H](Cc1c[nH]c2ccccc12)C(=O)N[C@@H](CCCCN)C(=O)N[C@@H](Cc1ccc(O)cc1)C(N)=O [^68Ga-DOTA-AngII peptide, metal not drawn] ({DOTA}-K[βAla]DRVYIHPFWKY-NH2)
